Results on three compounds are retold here after patent US5614562A, “Method of treating drug resistant tumor cells using organoselenones” (The University of Sourthern California, priority 1992, dated 1997).

For data set [1] the following is noted: methanol, 35° C.; cited from earlier work.
Data set [2] is described as follows: Swain-Scott product competition of nitrogen and oxygen nucleophiles vs NBP (second-order rate constant ratios). It is filed as physicochemical. The conditions noted are these: for log(kN/knbp): N3^- vs NBP, 37° C., 10 h, 52% aqueous acetone, mean ± S.D. The source says: (§1) The properties of nucleophilicity and electivity can be quantitatively expressed as n and s constants in the Swain-Scott linear free energy relationship. It has been shown that s and n constants of biological alkylating agents and nucleophiles, respectively, can be readily determined with high precision, using 4-(4-nitrobenzyl)pyridine (NBP) as a competitive substrate for alkyl product formation (Spears, C. P. Mol. Pharmacl.19:496-504,1981; Barbin,A.,Bereziat, A., O'Neill, I. K., and Bartsch, H. Chem.-Biol. Interact,73:261-277, 1990; Kang, S. I., and Spears,C. P. J. Med. Chem. 33:1544-1547, 1990). Broad-spectrum antitumor alkylating agents show uniformly high s constants Spears, C. P. Mol.Pharmacol. 19:496-504, 1981; in contrast, mutagenically efficient alkylating agents show low values (Peterson,A. R., Landolph, J. R., Peterson, H., Spears, C. P., and Heidelberger, C. Cancer Res. 41:3095-3099, 1981; Barbin, A., and Bartsch, H. Mut. Res.215:95-106, 1989).
(§2) FIG. 1 is a Swain-Scott plot of the ratio of second-order rate constants, log (ky /knbp) for several model sulfur, nitrogen, and oxygen nucleophiles in their reactions with 2-chloroethyl 4-methoxy-phenyl selenone ("CEMOS"), vs. their published nucleophilicity nCH3 Br constants. Values of n were taken to be 2.72 for acetate (AcO--), 3.3 for ascorbate, 3.6 for pyridine, 4.0 for azide (N3), 3.94 for nitrite, 5.1 for thiol (SH), 6.18 for sulfite (SO3^2-), 6.36 for thiosulfate (S2 O3^2-), and 6.6 for thiophosphate (HPSO3^2-) (derived from the Ogston "Competition Factor") (Ogston, A. G., Holiday, E. R., Philpot, J. S. L., and Stocken, L. A. Trans.Faraday Soc. 44:45-52, 1948).
The slope of the linear regression equation through the 5 nitrogen and oxygen nucleophiles gives a Swain-Scott selectivity constant, s, equal to 1.79, by Eq. A, shown in FIG. 1:
(§3) ^a By competition between S2 O3^2- and NBP log(kS
(§4) /knbp) or N3^- and NBP log(kN /knbp ) at
(§5) 37° C. and 10 h, in 52% aqueous acetone, using initial
(§6) concentrations of 0.0435 mM and 0.0217 mM of 2chloroethyl phenyl selenone
(§7) and nornitrogen mustard, respectively, as described. Values, experimental

The test system of data set [3] is HCT116. The data set is described as follows: In vitro cytotoxicity, HCT116 human colon carcinoma. It counts as cell-based. As to conditions: Homo sapiens, HCT-116; data provided by Bristol-Myers Laboratories. The source says: ^b Cell lines: HCT116 human colon (sensitive to VP16 and VM26)
Data set [4] has as its system HCT/VP35. The data set is described as follows: In vitro cytotoxicity, VP16 resistant HCT/VP35 human colon carcinoma. It counts as cell-based. As to conditions: for IC50: Homo sapiens, HCT/VP35, VP16 resistant, data provided by Bristol-Myers Laboratories; for ratio of IC50 values HCT/VP35 vs HCT116: IC50 divided by IC50 for HCT116. The source says:
| HCT/VP35 human colon, VP16 resistant

Data set [5] relates to HCT/VM46. The data set is described as follows: In vitro cytotoxicity, VM26 resistant HCT/VM46 human colon carcinoma. The conditions noted are these: for IC50: Homo sapiens, VM26 resistant, data provided by Bristol-Myers Laboratories; for ratio of IC50 values HCT/VM46 vs HCT116: IC50 divided by IC50 for HCT116. It counts as cell-based. The source says:
| HCT/VM46 human colon, VM26 resistant

The test system of data set [6] is P388 murine leukemia ascites cells. Kind of data set: In vivo growth inhibition of P388 leukemia ascites in mice. More on the design: species or system murine; BDF1 mice. As for the experimental part: In FIG. 2 and Table II are shown the results of in vivo antitumor testing of 2-chloroethyl aryl selenones against murine P388 Leukemia ascites cells.
Examples 5-8 consisted of the use of 2-chloroethyl 4-methoxy-phenyl selenone to treat the mice. Examples 9-12 were the same as example 5 except 2-chloroethyl phenyl selenone was employed.
(§8) The maximally tolerated duration of the highest dose shown in FIG. 2 and Table II, 6 mg/kg/day i.p. of 2-chloroethyl phenyl selenone, was 10 days in a separate experiment. In the experiments shown, i.p. drug was administered for 5 consecutive days, Days 1-5, beginning the day after tumor inoculation (on Day 0).
Mice were inoculated i.p. with 1×10^6 cells of P388 murine leukemia ascites passaged in BDF1 mice, in a volume of 0.1 ml. The selenones were formulated in normal (0.9%, w/v) NaCl for an injection volume of 0.3 ml. Control mice (12 in each group) received i.p. saline alone comparative examples 1 and 2. For each dose level and drug, 6 mice per group were used.
The plateauing of weight increase, at Days 8-9, is consistent with classical Gompertizian tumor growth kinetics (Laird, A. K. Brit. J. Cancer 18:490-502, 1964). The delays observed in the time period before the onset of the exponential phase of weight increase are given in Table II, defined as the Growth Delay.
^a Calculated from Day at which weight first exceeded baseline (Day 0

The format of data set [7] is physicochemical.
Data set [8] relates to HT29 human colon carcinoma cells. Kind of data set: Growth inhibition cytotoxicity against HT29 human colon carcinoma cells (MER(+)). It is filed as cell-based. As to conditions: HT-29. The source says: (Example 15) These cells are very high in the alkyltransferase enzyme for repair of DNA guanine O6-alkyl products, and therefore are considered strongly MER(+) in phenotype. Levels of this enzyme in HT29 cells have averaged about 0.5 pmol/mg protein in recent studies (K. Chan, et al., unpublished). […] Thus, the lack of cross-resistance to ethyleneimines by the present invention of 2-chloroethyl aryl selenones is not associated with resistence mediated by the alkyltransferase repair enzyme.

In data set [9] the test system is 7 different human colon carcinoma cell lines. The conditions noted are these: read-out: average IC50, NCI in vitro screen; cited from earlier work.
The test system of data set [10] is L1210/0. Kind of data set: Cytotoxicity, 48-hr exposure of L1210/0 leukemia cells. It counts as cell-based, murine. As to conditions: Mus musculus, L1210/0; 48-hr exposure; read-out: IC50 L1210/0. The source says: (§9) Murine L1210 leukemia cells sensitive (L1210/0) and resistant (L1210/L-PAM)to L-phenylalanine mustard were obtained that are adaptable to either in vitro or in vivo passage.
(§10) Broad resistance of the L1210/L-PAM cell line is shown by the approximately 4-fold and 9-fold increases in IC50, compared to L1210/0, for L-PAM and mechlorethamine, respectively (Comparative Examples 3 and 4). […].

Data set [11] has as its system L1210/L-PAM. The data set is described as follows: Cytotoxicity, 48-hr exposure of L-PAM resistant L1210/L-PAM leukemia cells. It counts as cell-based, murine. The conditions noted are these: 48-hr exposure; for IC50: Mus musculus, L1210/LPAM, read-out: IC50 L1210/L-PAM.
From the text: as §9, §10

Data set [12] can be described thus: Acute intraperitoneal toxicity / maximally tolerated dose in mice. It is filed as in vivo. As to conditions: 6 mg/kg/day i.p., separate experiment. As for the experimental part: as §8
Data set [13] in a line: Swain-Scott product competition of sulfur nucleophiles vs NBP (second-order rate constant ratios). It is filed as physicochemical. The conditions noted are these: for log(kS/knbp): S2O3^2- vs NBP, 37° C., 10 h, 52% aqueous acetone, mean ± S.D.
From the text: as §1, §2
Extrapolation of Eq. A predicts that the log (ky /knbp) values for the thiol nucleophiles should have ranged from 3 to 5. However, the measured ratios of second-order rate constants were approximately 100-fold lower than this expectation. Also, the linear regression relationship, Eq. B (FIG. 1), for correlation of log (ky /knbp) values vs. nCH3 Br constants gave a sulfur nucleophile selectivity constant, s, equal to 0.84, approximately one-half of the value for reaction with nitrogen and oxygen nucleophiles:
as §3, §4, §5, §6, §7

The conditions of data set [14]: literature value; cited from earlier work.
The mark [15] stands for this setting: 1.0 mg/kg daily i.p., Days 1-5 (total 5 mg/kg), Ex. 6, Ex. 9.
[16] abbreviates: 2.0 mg/kg daily i.p., Days 1-5 (total 10 mg/kg), Ex. 7, Ex. 10.
[17] abbreviates: 4.0 mg/kg daily i.p., Days 1-5 (total 20 mg/kg), Ex. 8, Ex. 11.

Molecules are shown by their SMILES. In brackets after ≈: the same amount, converted by molar mass.

Take `C[Se](=O)(=O)c1ccccc1` [PhSeO2 CH3]: in data set [1], the “reactivity in methylation of dimethylsulfide” value is on record as “three times as reactive as methyl iodide”.

Consider `O=[Se](=O)(CCCl)c1ccccc1` [2-chloroethyl phenyl selenone], for which the entries for the “log(kN/knbp)” value in data set [2] and in [2] (listed as SKI-273) were 1.95 ± 0.11 and 1.95±0.11, respectively. The IC50 was 1.02 µg/mL (≈ 4.05 µM) in data set [3]; 0.82 µg/mL (≈ 3.26 µM) in [4]; 0.44 µg/mL (≈ 1.75 µM) in data set [5]; 2800 nM in data set [8]; 2300 ± 1600 nM in data set [9]; 550 nM in data set [10]. In data set [11], the IC50 was determined as 510 nM. For the same compound, the “ratio of IC50 values HCT/VP35 vs HCT116” value in [4] is given as 0.8. The “ratio of IC50 values HCT/VM46 vs HCT116” value in [5] was 0.4. The Growth delay in data set [6] (setting [15]) was 4 days; in data set [6] (setting [16]) it was 7 days; in data set [6] (setting [17]) it was 8 days; in [6] (6 mg/kg daily i.p., Days 1-5 (total 30 mg/kg), Ex. 12) it was 11 days. For the same compound, in data set [6] (1 mg/kg/d i.p.), the “inhibition of tumor growth by the lowest dose tested” value is listed as “inhibition of tumor growth”. The “AA (alkylating activity, absorption at 560 nm)” value in [7] (alkalinized alkyl-NBP, mean ± S.D.) is recorded as 0.75 ± 0.004. The “alkylating activity relative to mechlorethamine HCl” value in data set [7] (mechlorethamine HCl = 100%) came to 140%. Further, the “alkylating activity, percent of nor-nitrogen mustard” value in data set [7] (relative to nor-nitrogen mustard) was 170%. For the same compound, the “Ratio of IC50s (L1210/L-PAM vs L1210/0)” value in data set [11] stood at 0.9. Moreover, the maximally tolerated duration in data set [12] is on record as 10 days. Moreover, the “log(kS/knbp)” value in data set [13] is recorded as 1.77 ± 0.05; in [13] (listed as SKI-273), 1.77±0.05.

With `COc1ccc([Se](=O)(=O)CCCl)cc1` [2-chloroethyl 4-methoxy-phenyl selenone], the “Swain-Scott selectivity constant, s (nitrogen and oxygen nucleophiles)” value in [2] (5 nitrogen and oxygen nucleophiles, Eq. A, FIG. 1) was found to be 1.79. In [2] (from intercept of Eq. A), the “susceptibility to aqueous hydrolysis” value is recorded as “extremely low susceptibility”. For the same compound, in [2] (n=3.6 (pyridine)), the “log (ky/knbp) at n=3.6” value is listed as “nearly zero”. The “intercept of Eq. A, log (ky/knbp) vs. nCH3Br” value in [2] (nitrogen and oxygen nucleophiles, Eq. A, listed as CEMOS) was determined as 6.40. Further, the IC50 is 1.01 µg/mL (≈ 3.59 µM) in data set [3]; 0.6 µg/mL (≈ 2.13 µM) in data set [4]; 0.42 µg/mL (≈ 1.49 µM) in data set [5]; 360 nM in data set [10]; 360 nM in data set [11]. In data set [4], the “ratio of IC50 values HCT/VP35 vs HCT116” value is on record as 0.6. The “ratio of IC50 values HCT/VM46 vs HCT116” value in [5] is 0.4. Also, the Growth delay in [6] (0.5 mg/kg daily i.p., Days 1-5 (total 2.5 mg/kg), Ex. 5) worked out at 0 days; in [6] (setting [15]), 0 days; in data set [6] (setting [16]), 3 days; in data set [6] (setting [17]), 7 days. Further, in data set [6] (vs. parent 2-chloroethyl phenyl selenone), the relative antitumor effectiveness entry is given as “less effective than the parent 2-chloroethyl phenyl selenone”. Moreover, in data set [7] (FIG. 1 experiments), the “alkylating activity in the FIG. 1 experiments” value is 103%. Also, in data set [14], the “alkylating activity reported (Kang and Spears 1990)” value is on record as 100%. Besides, the “Ratio of IC50s (L1210/L-PAM vs L1210/0)” value in [11] came to 0.9. Further, in data set [13], the “selectivity within the thiol series” value is listed as “abnormally low”. In addition, the “measured ratios of second-order rate constants lower than expectation” value in [13] (sulfur nucleophiles vs. extrapolation of Eq. A) is recorded as “approximately 100 fold”. Besides, the “sulfur nucleophile selectivity constant, s” value in data set [13] (sulfur nucleophiles, Eq. B, FIG. 1) came to 0.84.
